# Patent US20190055576A1, “USE OF HERBICIDE-TOLERANT PROTEIN” (BEIJING DABEINONG TECHNOLOGY GROUP CO., LTD., priority 2016, published 2019)
# System: wild-type Arabidopsis thaliana plants
# Test: Herbicide tolerance of wild-type Arabidopsis thaliana plants, resistance classes counted after spraying
# Type: in vivo
# From the text: T1 transformants were initially selected from the background of untransformed seeds using a glufosinate selection scheme. About 40000 T1 seeds were screened, and 380 T1 positive transformants (PAT gene) were identified with a transformation efficiency of about 0.95%. The plants that were transformed with the recombinant expression vector DBN100632 were Arabidopsis thaliana plants having an ALT-1-01 nucleotide sequence located in the cytoplasm introduced (At cytoplasmic ALT-1-01), and the plants that were transformed with the recombinant expression vector DBN100631 were Arabidopsis thaliana plants having an ALT-1-01 nucleotide sequence located in the chloroplast introduced (At chloroplastic ALT-1-01); the plants that were transformed with the recombinant expression vector DBN100634 were Arabidopsis thaliana plants having an ALT-2-01 nucleotide sequence located in the cytoplasm introduced (At cytoplasmic ALT-2-01), and the plants that were transformed with the recombinant expression vector DBN100633 were Arabidopsis thaliana plants having an ALT-2-01 nucleotide sequence located in the chloroplast introduced (At chloroplastic ALT-2-01); and the plants that were transformed with the recombinant expression vector DBN100636 were Arabidopsis thaliana plants having an ALT-3-01 nucleotide sequence located in the cytoplasm introduced (At cytoplasmic ALT-3-01), and the plants that were transformed with the recombinant expression vector DBN100635 were Arabidopsis thaliana plants having an ALT-3-01 nucleotide sequence located in the chloroplast introduced (At chloroplastic ALT-3-01). The herbicide tolerance effects of At cytoplasmic ALT-1-01 T1 plants, At chloroplastic ALT-1-01 T1 plants, At cytoplasmic ALT-2-01 T1 plants, At chloroplastic ALT-2-01 T1 plants, At cytoplasmic ALT-3-01 T1 plants, At chloroplastic ALT-3-01 T1 plants and wild-type Arabidopsis thaliana plants on Sulfometuron-methyl were detected (14 days after sowing), respectively.
# At cytoplasmic ALT-1-01 T1 plants, At chloroplastic ALT-1-01 T1 plants, At cytoplasmic ALT-2-01 T1 plants, At chloroplastic ALT-2-01 T1 plants, At cytoplasmic ALT-3-01 T1 plants, At chloroplastic ALT-3-01 T1 plants and wild-type Arabidopsis thaliana plants were sprayed with Sulfometuron-methyl (30 g ai/ha, 1-fold field concentration) and a blank solvent (water), respectively. Plants were counted for the resistance situations 14 days after spraying: those having a consistent growth status with the blank solvent (water) group after 14 days were classified as highly resistant plants, those having a bolting height less than ½ of that of the blank solvent (water) group after 14 days were classified as moderately resistant plants, those still not capable of bolting after 14 days were classified as poorly resistant plants, and those dead after 14 days were classified as non-resistant plants. Since each Arabidopsis thaliana T1 plant was an independent transformation event, a significant difference in individual T1 responses could be expected at a given dose.
# At cytoplasmic ALT-1-01 T1 plants, At chloroplastic ALT-1-01 T1 plants, At cytoplasmic ALT-2-01 T1 plants, At chloroplastic ALT-2-01 T1 plants, At cytoplasmic ALT-3-01 T1 plants, At chloroplastic ALT-3-01 T1 plants and wild-type Arabidopsis thaliana plants in Example 4 were sprayed with iodosulfuron-methyl (10 g ai/ha, 1-fold field concentration), mesosulfuron (14 g ai/ha, 1-fold field concentration) and oxasulfuron (60 g ai/ha, 1-fold field concentration), respectively, in addition to Sulfometuron-methyl (30 g ai/ha, 1-fold field concentration) and the blank solvent (water). […]
# [1] = 1-fold field concentration (g ai/ha: Sulfometuron-methyl 30, iodosulfuron-methyl 10, mesosulfuron 14, oxasulfuron 60), 14 days after spraying
compound,measurement,setting,value
"COC(=O)c1ccccc1S(=O)(=O)NC(=O)Nc1nc(C)cc(C)n1 [Sulfometuron-methyl, 2-(4,6-dimethylpyrimidine-2-amino-formamido-sulfonyl) methyl benzoate]",Highly resistant (number of plants with growth status consistent with blank solvent group),[1],0
same,Moderately resistant (number of plants with bolting height less than 1/2 of blank solvent group),[1],0
same,Non-resistant (number of plants dead),[1],32
same,Poorly resistant (number of plants still not capable of bolting),[1],0
same,herbicide tolerance of wild-type plants,30 g ai/ha,none of the wild-type Arabidopsis thaliana plants was tolerant
